Key:
[1] = system: Human immunodeficiency virus 1; experiment: Anti-HIV activity in acutely infected H9 lymphocytes.; type: functional, organism-based
[2] = (§1) Tested for in vitro therapeutic index as the ratio of IC50 to EC50 in acutely infected H9 Lymphocytes; type: organism-based, Human immunodeficiency virus 1; conditions: human immunodeficiency virus 1, H9 lymphocytes acutely infected with HIV-1; read-out: TI
[3] = system: Human immunodeficiency virus 1; experiment: as §1; type: organism-based; conditions: Human immunodeficiency virus 1
[4] = system: U-937; experiment: Compound was tested for anti-HIV activity in acutely infected U937; type: functional, cell-based; conditions: Homo sapiens
[5] = Tested for in vitro therapeutic index as the ratio of IC50 to EC50 in acutely infected U937; type: cell-based, U-937; conditions: human, acutely infected U937 cells; read-out: TI
[6] = Tested for in vitro therapeutic index as the ratio of IC50 to EC50 in PBMCs; conditions: human, read-out: TI

SMILES | EC50 ([1]; Human immunodeficiency virus 1) | selectivity ratio [2] | further results
Cc1cn([C@H]2C[C@H](N=[N+]=[N-])[C@@H](CO)O2)c(=O)[nH]c1=O [ZIDOVUDINE] | 0.15 µM | 12500 | 
CC(=O)OC1c2c(ccc3ccc(=O)oc23)OC(C)(C)C1OC(C)=O (stereo in doubt; 37) |  |  | EC50 [1]: 43 µM; TI [3]: 3
CCC(C)C(=O)OC1c2c(ccc3ccc(=O)oc23)OC(C)(C)C1OC(=O)C(C)CC (stereo not given) | 7 µM | 14.4 | 
CC1(C)Oc2ccc3ccc(=O)oc3c2C(OC(=O)C23CCC(C)(C(=O)O2)C3(C)C)C1OC(=O)C12CCC(C)(C(=O)O1)C2(C)C (stereo in doubt; 38) | 24.1 µM | 3 | 
CC(C)(C)CC(=O)O[C@@H]1c2c(ccc3ccc(=O)oc23)OC(C)(C)[C@@H]1OC(=O)CC(C)(C)C | 21.8 µM | 2 | 
CC1(C)Oc2ccc3ccc(=O)oc3c2C(N=[N+]=[N-])C1O (stereo not given) | 116 µM | 2.9 | 
CC(=O)OC1c2c(ccc3ccc(=O)oc23)OC(C)(C)C1OCc1ccccc1 (stereo not given) | 38 µM | 2.3 | 
CC(C)CC(=O)OC1c2c(ccc3ccc(=O)oc23)OC(C)(C)C1OC(=O)CC(C)C (stereo in doubt; 9) |  | 2 | EC50 [1]: 7 µM
COC1C(OC(=O)c2cccc(Cl)c2)c2c(ccc3ccc(=O)oc23)OC1(C)C (stereo not given) | 241 µM | 0.34 | 
CC1(C)Oc2ccc3ccc(=O)oc3c2[C@@H](OC(=O)C23CCC(C)(C(=O)O2)C3(C)C)[C@H]1OC(=O)C12CCC(C)(C(=O)O1)C2(C)C (mixture of isomers; 17) |  |  | EC50 [1]: 145 µM; TI [3]: 1.1
CC(C)CC(=O)OC1C(OC(=O)c2cccc(Cl)c2)c2c(ccc3ccc(=O)oc23)OC1(C)C (stereo not given) | 9.3 µM | 1.4 | 
C/C=C(\C)C(=O)O[C@@H]1c2c(ccc3ccc(=O)oc23)OC(C)(C)[C@@H]1OC(C)=O [PTERYXIN] | 4.6 µM | 4.5 | 
CC1(C)Oc2ccc3ccc(=O)oc3c2[C@@H](OC(=O)C23CCC(C)(C(=O)O2)C3(C)C)[C@H]1OC(=O)C12CCC(C)(C(=O)O1)C2(C)C (mixture of isomers; 16) |  |  | EC50 [4]: 0.0021 µM; selectivity ratio [5]: 11700; selectivity ratio [6]: 472; EC50 [1]: 4 µM; TI [3]: 136719
CC(=O)OC1C(N=[N+]=[N-])c2c(ccc3ccc(=O)oc23)OC1(C)C (stereo not given) | 116 µM | 1 | 
CC1(C)Oc2ccc3ccc(=O)oc3c2C(OC(=O)C23CCC(C)(C(=O)O2)C3(C)C)C1OC(=O)C12CCC(C)(C(=O)O1)C2(C)C (stereo in doubt; 39) |  |  | EC50 [1]: 32 µM; TI [3]: > 5
CC1(C)Oc2ccc3ccc(=O)oc3c2C(OC(=O)c2cccc(Cl)c2)C1O (stereo not given) | 4.2 µM | 2.4 | 
CC(C)=CC(=O)OC1c2c(ccc3ccc(=O)oc23)OC(C)(C)C1OC(=O)C=C(C)C (stereo not given) | 4.7 µM | 3.5 | 
CC1(C)C=Cc2c(ccc3ccc(=O)oc23)O1 [SESALIN] | 3.5 µM | 5 | 
CC(C)[C@H]1CC[C@H](C)C[C@@H]1OC(=O)OC1c2c(ccc3ccc(=O)oc23)OC(C)(C)C1OC(=O)O[C@@H]1C[C@H](C)CC[C@H]1C(C)C (stereo not given in full) | 11.4 µM | 2.9 | 
CC(=O)O[C@@H]1[C@H](OC(=O)CC(C)C)c2c(ccc3ccc(=O)oc23)OC1(C)C [SUKSDORFIN] | 2.6 µM | 30.6 | 
CC1(C)Oc2ccc3ccc(=O)oc3c2C(OC(=O)c2cccc(Cl)c2)C1OC1CCCCO1 (single isomer, unassigned) | 8.3 µM | 10 | 
CC1(C)Oc2ccc3ccc(=O)oc3c2C(OC(=O)c2cccc(Cl)c2)C1OCc1ccccc1 (stereo not given) | 3.1 µM | 5 | 
CC(=O)OC1c2c(ccc3ccc(=O)oc23)OC(C)(C)C1OC(C)=O (stereo in doubt; 8) | 69.4 µM |  | TI [3]: 0.4
CC1(C)Oc2ccc3ccc(=O)oc3c2C(O)C1OCc1ccccc1 (stereo not given) | 43 µM | 2.7 | 
CC(C)(C)c1ccc(C(=O)OC2c3c(ccc4ccc(=O)oc34)OC(C)(C)C2OC(=O)c2ccc(C(C)(C)C)cc2)cc1 (stereo not given) | < 1.4 µM | > 2.2 | 
CC(C)CC(=O)OC1c2c(ccc3ccc(=O)oc23)OC(C)(C)C1OC(=O)CC(C)C (stereo in doubt; 42) |  |  | EC50 [1]: 20.9 µM; TI [3]: 3

Source: ChEMBL document CHEMBL1127408, “Anti-AIDS agents. 15. Synthesis and anti-HIV activity of dihydroseselins and related analogs” (J Med Chem, 1994)
